Laboratory results taken from US12522587B2, “Cancer treatments targeting cancer stem cells” (Remedy Plan, Inc., priority 2018, dated 2026).
Where a name gives a salt, the structure may show the parent alone. Read-outs that look alike come from different tables or passages of the source.

Legend:
RS4;11 cells = assay: Cell viability in RS4;11 cells (CellTiter Glo2, 4 days); assay type: cell-based; settings: Homo sapiens, 96 h
Experimental: Approximately 10,000 RS4;11 cells per well of a 96-well plate were treated with DMSO (no drug control) or each compound in Table 6 in an 8-point dose response for 4 days. Cell viability was measured using CellTiter Glo2. The IC50 of each compound was determined using CDD Vault.

MV-4-11 cells = assay: Cell viability in MV-4-11 cells (CellTiter Glo2, 4 days); assay type: cell-based; settings: Homo sapiens, MV4-11, 96 h
Experimental: Approximately 10,000 MV-4-11 cells per well of a 96-well plate were treated with DMSO (no drug control) or each compound in Table 6 in an 8-point dose response for 4 days. Cell viability was measured using CellTiter Glo2. The IC50 of each compound was determined using CDD Vault.

AGS cells = assay: Cell viability in AGS cells (CellTiter Glo2, 8-point dose response, 4 days); assay type: cell-based, human
Experimental: AGS cells were treated with DMSO (no drug control) or each compound in Table 5 in an 8-point dose response for 4 days. Cell viability was measured using CellTiter Glo2. The IC50 of each compound was determined using CDD Vault.

SMILES | IC50 (AGS cells; Homo sapiens, AGS, 96 h) [µM] | also measured
CCC(=O)N(C)c1ccc(-c2ccc(C(=O)NCc3cccnc3)cc2)cc1Cl [Compound I-225, 3′-chloro-4′-(N-methylpropionamido)-N-(pyridin-3-ylmethyl)-[1,1′-biphenyl]-4-carboxamide] | 1.09 | IC50 (RS4;11 cells): 0.237 µM; IC50 (MV-4-11 cells): 0.613 µM
CCC(=O)N1CCc2cc(-c3ccc(C(=O)NCc4cccnc4)cc3)cc(C)c21 [Compound I-17, 4-(7-methyl-1-propionylindolin-5-yl)-N-(pyridin-3-ylmethyl)benzamide] | 1.05 | IC50 (RS4;11 cells): 0.27 µM; IC50 (MV-4-11 cells): 0.67 µM; IC50 (AGS cells): 1.02 µM
CC(=O)N(C)c1ccc(-c2ccc(C(=O)NCc3cccnc3)nc2)cc1 [Compound I-202, 5-(4-(N-methylacetamido)phenyl)-N-(pyridin-3-ylmethyl)picolinamide] | 10.3 | IC50 (RS4;11 cells): 2.55 µM; IC50 (MV-4-11 cells): 1.47 µM; IC50 (AGS cells): 17.5 µM
CCC(=O)N1CCc2cc(-c3ccc(C(=O)NCc4cccnc4)cc3)ccc21 [Compound I-43, 4-(1-propionylindolin-5-yl)-N-(pyridin-3-ylmethyl) benzamide] | 2.48 | IC50 (RS4;11 cells): 0.606 µM; IC50 (MV-4-11 cells): 2.93 µM; IC50 (AGS cells): 2.36 µM
CCC(=O)N1CCc2cc(-c3ccc(C(=O)NCc4cccnc4)c(F)c3)ccc21 [Compound I-98, 2-fluoro-4-(1-propionylindolin-5-yl)-N-(pyridin-3-ylmethyl) benzamide] |  | IC50 (RS4;11 cells): > 30 µM; IC50 (MV-4-11 cells): 0.845 µM
CCC(=O)N1CCc2cc(-c3ccc(C(=O)NCc4cccnc4)cn3)ccc21 [Compound I-54, 6-(1-propionylindolin-5-yl)-N-(pyridin-3-ylmethyl)nicotinamide] | > 17 | IC50 (RS4;11 cells): 4.92 µM; IC50 (MV-4-11 cells): 10.4 µM; IC50 (AGS cells): > 16.9 µM
CCC(=O)N(C)c1ccc(-c2nc(C(=O)NCc3cccnc3)cs2)cc1 [Compound I-241, 2-(4-(N-methylpropionamido)phenyl)-N-(pyridin-3-ylmethyl)thiazole-4-carboxamide] | > 30 | IC50 (RS4;11 cells): 10.5 µM; IC50 (MV-4-11 cells): 3.92 µM
CCC(=O)N(C)c1ccc(-c2ccc(C(=O)NCc3cccnc3)cc2)c(Cl)c1 [Compound I-224, 2′-chloro-4′-(N-methylpropionamido)-N-(pyridin-3-ylmethyl)-[1,1′-biphenyl]-4-carboxamide] | 1.48 | IC50 (RS4;11 cells): 5.32 µM; IC50 (MV-4-11 cells): 1.1 µM
CCOC(=O)N(C)c1ccc(-c2ccc(C(=O)NCc3cccnc3)cc2)cc1 [Compound I-231, ethyl methyl(4′-((pyridin-3-ylmethyl)carbamoyl)-[1,1′-biphenyl]-4-yl)carbamate] | 3.41 | IC50 (RS4;11 cells): 2.92 µM; IC50 (MV-4-11 cells): 0.741 µM
CCC(=O)N(C)c1ccc(-c2ccc(C(=O)NCc3cccnc3)cn2)cc1C [Compound I-232, 6-(3-methyl-4-(N-methylpropionamido)phenyl)-N-(pyridin-3-ylmethyl)nicotinamide] | 1.28 | IC50 (RS4;11 cells): 0.231 µM; IC50 (MV-4-11 cells): 1.22 µM
CCC(=O)N(C)Cc1ccc(-c2ccc(C(=O)NCc3cccnc3)cc2)cc1 [Compound I-228, 4′-((N-methylpropionamido)methyl)-N-(pyridin-3-ylmethyl)-[1,1′-biphenyl]-4-carboxamide] | 3.81 | IC50 (RS4;11 cells): 1.93 µM; IC50 (MV-4-11 cells): 0.765 µM
CCC(=O)N1CCc2cc(-c3ccc(C(=O)NCc4cccnc4)cc3C)ccc21 [Compound I-91, 3-methyl-4-(1-propionylindolin-5-yl)-N-(pyridin-3-ylmethyl)benzamide] | 2.03 | IC50 (AGS cells): 2.59 µM
CCC(=O)N1CCc2cc(-c3ccc(S(=O)(=O)NCc4cccnc4)cc3)ccc21 [Compound I-48, 4-(1-propionylindolin-5-yl)-N-(pyridin-3-ylmethyl)benzenesulfonamide] | 9.45 | 
CCC(=O)N1CCc2cc(-c3ccc(C(=O)NCc4cccnc4)cc3F)ccc21 [Compound I-97, 3-fluoro-4-(1-propionylindolin-5-yl)-N-(pyridin-3-ylmethyl) benzamide] | 3.17 | 
CCC(=O)N(C)c1ccc(-c2ccc(C(=O)NCc3cncc(F)c3)cc2)cc1 [Compound I-234] | > 30 | 
CC(=O)N(C)c1ccc(-c2ccc(C(=O)NCc3cccnc3)cc2)cc1C [Compound I-216] | 2.44 | 
CCC(=O)N1CCc2cc(-c3ccc(C(=O)NCc4ccnnc4)cc3)ccc21 [Compound I-52, 4-(1-propionylindolin-5-yl)-N-(pyridazin-4-ylmethyl)benzamide] | > 10 | IC50 (AGS cells): > 8.01 µM
CCC(=O)N(C)c1ccc(-c2ccc(C(=O)NCc3cscn3)cc2)cc1 [Compound I-236] | > 30 | 
CCC(=O)N1CCc2cc(-c3nc(C(=O)NCc4cccnc4)c[nH]3)ccc21 [Compound I-208, 2-(1-propionylindolin-5-yl)-N-(pyridin-3-ylmethyl)-1H-imidazole-4-carboxamide] | > 30 | IC50 (AGS cells): 15.1 µM
CCC(=O)N1CCc2cc(-c3ccc(C(=O)NCc4ccccc4)cc3)ccc21 [Compound I-152] | > 30 | 
CCC(=O)N1CCc2cc(-c3ccc(C(=O)NCC4=CC[NH2+]CC4)cc3)ccc21 [Mono- formate of I-69, Monoformate 4-(1-propionylindolin-5-yl)-N-((1,2,3,6-tetrahydropyridin-4-yl)methyl)benzamide] |  | IC50 (AGS cells; Homo sapiens, 96 h): > 30 µM
CCC(=O)N1CCc2cc(-c3ccc(NC(=O)Cc4cccnc4)cc3)ccc21 [Compound I-95] | > 30 | 

SMILES | IC50 (AGS cells; Homo sapiens, AGS, 96 h) [µM] | also measured
CCC(=O)N1CCc2nc(-c3ccc(C(=O)NCc4cccnc4)cc3)ccc21 [Compound I-71, 4-(1-propionyl-2,3-dihydro-1H-pyrrolo[3,2-b]pyridin-5-yl)-N-(pyridin-3-ylmethyl)benzamide] | 4.35 | 
CCC(=O)N1CCc2cc(-c3ccc(C(=O)NCc4cccnc4)cc3)c(Cl)cc21 [Compound I-212] | 1.35 | 
CCC(=O)N(C)c1ccc(-c2ccc(C(=O)NCc3cccnc3)cc2)cc1OC [Compound I-248, 3′-methoxy-4′-(N-methylpropionamido)-N-(pyridin-3-ylmethyl)-[1,1′-biphenyl]-4-carboxamide] | 3.59 | 
CC(C)(O)C(=O)N1CCc2cc(-c3ccc(C(=O)NCc4cccnc4)cc3)ccc21 [Compound I-68, 4-(1-(2-hydroxy-2-methylpropanoyl)indolin-5-yl)-N-(pyridin-3-ylmethyl)benzamide] | 29.7 | 
CCC(=O)N(C)c1ccc(-c2ccc(C(=O)NCc3cnccc3C)cc2)cc1 [Compound I-238] | > 30 | 
CCC(=O)n1ncc2cc(-c3ccc(C(=O)NCc4cccnc4)cc3)ccc21 [Compound I-56, 4-(1-propionyl-1H-indazol-5-yl)-N-(pyridin-3-ylmethyl)benzamide] | 7.68 | 
CCC(=O)N1CCc2cc(-c3ccc(C(=O)NCc4cncnc4)cc3)ccc21 [Compound I-51, 4-(1-propionylindolin-5-yl)-N-(pyrimidin-5-ylmethyl)benzamide] | > 30 | 
CCC(=O)N1CCc2cc(-c3ccc(C(=O)NCc4ccc(C)cc4)cc3)ccc21 [Compound I-157] | > 30 | 
CCC(=O)N1CCc2cc(-c3ccc(C(=O)NCC4CNC4)cc3)ccc21 [Compound I-200, N-(azetidin-3-ylmethyl)-4-(1-propionylindolin-5-yl)benzamide] | > 30 | 
CCC(=O)N1CCc2cc(-c3ccc(C(=O)NCC4CCCCC4)cc3)ccc21 [Compound I-186, N-(cyclohexylmethyl)-4-(1-propionylindolin-5-yl)benzamide] | > 30 | 
CCOc1ccc(CNC(=O)c2ccc(-c3ccc4c(c3)CCN4C(=O)CC)cc2)cc1 [Compound I-180] | > 30 | 
CC(=O)N1CCc2cc(-c3ccc(C(=O)NCc4ccccn4)cc3)ccc21 [Compound I-175] | 5.14 | 
CCC(=O)N1CCc2cc(-c3ccc(C(=O)NCc4ccc(C)nc4C)cc3)ccc21 [Compound I-60, N-((2,6-dimethylpyridin-3-yl)methyl)-4-(1-propionylindolin-5-yl)benzamide] | 0.344 | IC50 (AGS cells): 0.384 µM
CCC(=O)N1CCc2cc(N3CCN(C(=O)NCc4cccnc4)CC3)ccc21 [Compound I-223] | 4.54 | 
CCC(=O)N1CCc2c1ccc(-c1ccc(C(=O)NCc3cccnc3)cc1)c2Cl [Compound I-214] | 0.96 | 
CCC(=O)N1CCc2cc(-c3ccc(C(=O)NCc4cnccc4C)cc3)ccc21 [Compound I-188, N-((4-methylpyridin-3-yl)methyl)-4-(1-propionylindolin-5-yl)benzamide] | > 30 | 
CN(C(=O)c1ccccc1)c1ccc(-c2ccc(C(=O)NCc3cccnc3)cc2)cc1 [Compound I-240] | 5.11 | 
CCC(=O)N(C)c1ccc(-c2ccc(C(=O)NCc3cccnc3)cc2)c(C)c1 [Compound I-217] | 1.85 | 
CCC(=O)N1CCc2cc(-c3ccc(C(=O)NCC4CN(C(=O)OC(C)(C)C)C4)cc3)ccc21 [Compound I-196] | > 30 | 
CCC(=O)N1CCc2cc(-c3ncc(C(=O)NCc4cccnc4)cn3)ccc21 [Compound I-66, 2-(1-propionylindolin-5-yl)-N-(pyridin-3-ylmethyl) pyrimidine-5-carboxamide] | > 30 | 
CCC(=O)N1CCc2cc(-c3cnc(C(=O)NCc4cccnc4)nc3)ccc21 [Compound I-65, 5-(1-propionylindolin-5-yl)-N-(pyridin-3-ylmethyl) pyrimidine-2-carboxamide] | 7.27 | 
CCC(=O)N1CCc2cc(-c3ccc(C(=O)NCc4cccnc4)c(OC)c3)ccc21 [Compound I-96, 2-methoxy-4-(1-propionylindolin-5-yl)-N-(pyridin-3-ylmethyl)benzamide] | > 30 | 
